Laboratory results from US8710233B2 (Gruenenthal GmbH, priority 2005, dated 2014).
Like-named read-outs stand apart in the source and are kept apart here.

Legend:
[1] = biological target: T1, vanilloid receptor 1 (VR1/TRPV1) of the rat species (Rattus norvegicus, UniProt O35433); test: FLIPR Ca2+ influx assay on rat dorsal root ganglia cells (pharmacological method I); format: cell-based; details: table 4, capsaicin
T1 construct: The spinal column is removed from decapitated rats; from tissue; host or cells: primary cells dissociated from rat dorsal root ganglia
T1 sequence (O35433 whole entry): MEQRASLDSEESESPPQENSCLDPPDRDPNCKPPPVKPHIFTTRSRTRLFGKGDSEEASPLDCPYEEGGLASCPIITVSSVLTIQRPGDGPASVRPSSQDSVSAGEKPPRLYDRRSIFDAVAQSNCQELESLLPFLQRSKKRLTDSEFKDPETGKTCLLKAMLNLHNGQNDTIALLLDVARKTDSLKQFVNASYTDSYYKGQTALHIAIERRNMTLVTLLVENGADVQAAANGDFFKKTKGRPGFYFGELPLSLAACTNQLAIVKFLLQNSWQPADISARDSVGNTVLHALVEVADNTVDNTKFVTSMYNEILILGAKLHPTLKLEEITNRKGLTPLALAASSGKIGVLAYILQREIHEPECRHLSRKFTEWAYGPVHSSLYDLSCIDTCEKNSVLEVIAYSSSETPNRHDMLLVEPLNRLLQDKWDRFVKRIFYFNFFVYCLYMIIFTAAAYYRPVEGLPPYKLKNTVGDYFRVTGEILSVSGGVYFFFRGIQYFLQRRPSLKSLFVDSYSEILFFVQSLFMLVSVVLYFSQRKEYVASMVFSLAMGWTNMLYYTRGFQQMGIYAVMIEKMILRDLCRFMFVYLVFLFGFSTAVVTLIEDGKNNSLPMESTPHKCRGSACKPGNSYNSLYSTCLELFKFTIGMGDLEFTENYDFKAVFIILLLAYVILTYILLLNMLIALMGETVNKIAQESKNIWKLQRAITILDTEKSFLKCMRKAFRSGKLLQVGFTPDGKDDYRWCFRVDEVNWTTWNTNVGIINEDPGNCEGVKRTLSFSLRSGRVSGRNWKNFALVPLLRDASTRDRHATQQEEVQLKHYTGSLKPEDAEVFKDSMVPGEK
Method in brief: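 Primary rat dorsal root ganglion cells loaded with 2 μM Fluo-4, Ca2+ influx read on FLIPR as peak fluorescence. Triplicates, at least 3 independent experiments.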

[2] = system: capsaicin induced hypothermie; test: Hypothermie assay in the mouse (capsaicin induced hypothermie); format: in vivo; details: mouse, read-out: inhibition hypothermie (n = 5); for inhibition in vivo at 0.1 mg/kg: 0.1 mg/kg body weight po
VR1/TRPV1 receptor = VR1/TRPV1 receptor (Homo sapiens, UniProt Q8NER1); test: IC50 (human) after pH stimulus; format: cell-based; details: table 4
Chain of VR1/TRPV1 receptor (Q8NER1 whole entry): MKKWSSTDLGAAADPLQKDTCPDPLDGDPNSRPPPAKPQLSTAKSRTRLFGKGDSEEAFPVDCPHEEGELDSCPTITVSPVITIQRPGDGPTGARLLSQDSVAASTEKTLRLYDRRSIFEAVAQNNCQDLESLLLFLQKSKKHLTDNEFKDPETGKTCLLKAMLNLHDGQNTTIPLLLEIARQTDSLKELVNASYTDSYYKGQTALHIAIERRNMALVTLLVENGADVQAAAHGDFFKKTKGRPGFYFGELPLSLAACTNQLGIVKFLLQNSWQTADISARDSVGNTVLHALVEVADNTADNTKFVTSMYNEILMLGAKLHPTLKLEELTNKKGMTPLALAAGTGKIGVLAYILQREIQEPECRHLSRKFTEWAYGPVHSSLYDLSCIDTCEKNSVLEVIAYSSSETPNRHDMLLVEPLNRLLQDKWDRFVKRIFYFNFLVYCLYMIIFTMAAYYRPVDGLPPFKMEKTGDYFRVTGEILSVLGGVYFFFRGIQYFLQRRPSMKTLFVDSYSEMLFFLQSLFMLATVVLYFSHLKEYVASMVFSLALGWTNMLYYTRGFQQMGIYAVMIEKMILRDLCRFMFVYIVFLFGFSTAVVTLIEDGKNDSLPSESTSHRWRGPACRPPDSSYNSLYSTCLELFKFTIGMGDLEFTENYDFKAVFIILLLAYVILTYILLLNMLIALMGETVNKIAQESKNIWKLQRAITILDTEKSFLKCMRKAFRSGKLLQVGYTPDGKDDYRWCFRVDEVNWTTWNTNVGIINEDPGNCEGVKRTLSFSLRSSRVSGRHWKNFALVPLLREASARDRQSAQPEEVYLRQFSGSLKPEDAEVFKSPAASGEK

| Ki ([1]; read-out: Ki (rat) Cap.) [nM] | IC50 (VR1/TRPV1 receptor) [nM] | Ki ([1]; Ki (rat) Cap.) [nM] | Compound | inhibition in vivo at 0.1 mg/kg [2] [%] | inhibition in vivo at 0.3 mg/kg ([2]; 0.3 mg/kg body weight po) [%] |
| --- | --- | --- | --- | --- | --- |
| 1 | 85.3 | – | CC(C(=O)NCc1ccc(C(C)(C)C)nc1OC1CCCC1)c1ccc(NS(C)(=O)=O)c(F)c1 (stereo not drawn) [Example 234, N-(6-tert-butyl-2-cyclopentyloxy-pyridin-3-ylmethyl)-2-(3-fluoro-4-methylsulfonamido-phenyl)-propionamide] | 19 | – |
| 8.3 | 140 | – | Cc1ccc(Cl)cc1Nc1nc(C(F)(F)F)ccc1CNC(=O)C(C)c1ccc(NS(C)(=O)=O)c(F)c1 (stereo not drawn) [Example 136, N-[2-(5-chloro-2-methyl-phenylamino)-6-trifluoromethyl-pyridin-3-ylmethyl]-2-(3-fluoro-4-methylsulfonamido-phenyl)-propionamide] | – | 43 |
| – | 23.8 | 1 | CC(C(=O)NCc1ccc(C(F)(F)F)nc1OCCC(C)(C)C)c1ccc(NS(C)(=O)=O)c(F)c1 (stereo not drawn) [Example 125] | 5 | – |
